ChEMBL document CHEMBL3045984, “Resistance to HPPD-inhibiting herbicides in a population of waterhemp (Amaranthus tuberculatus) from Illinois, United States” (2011)

Legend:
Format in all cases: functional
Amaranthus tuberculatus [1] = assay: Herbicidal activity against Amaranthus tuberculatus biotype ACR assessed as visual injury at 92 g/ha applied as spray after 14 days under green house conditions relative to untreated control
Amaranthus tuberculatus [2] = assay: Herbicidal activity against Amaranthus tuberculatus biotype MCR 16 assessed as visual injury at 92 g/ha applied as spray after 21 days under green house conditions relative to untreated control
Amaranthus tuberculatus [3] = assay: Herbicidal activity against Amaranthus tuberculatus biotype MCR 12 assessed as visual injury at 92 g/ha applied as spray after 14 days under green house conditions relative to untreated control
Amaranthus tuberculatus [4] = assay: Herbicidal activity against Amaranthus tuberculatus biotype MCR 16 assessed as visual injury at 92 g/ha applied as spray after 14 days under green house conditions relative to untreated control
Amaranthus tuberculatus [5] = assay: Herbicidal activity against Amaranthus tuberculatus biotype WCS assessed as visual injury at 92 g/ha applied as spray after 21 days under green house conditions relative to untreated control
Amaranthus tuberculatus [6] = assay: Herbicidal activity against Amaranthus tuberculatus biotype ACR assessed as visual injury at 92 g/ha applied as spray after 21 days under green house conditions relative to untreated control
Amaranthus tuberculatus [7] = assay: Herbicidal activity against Amaranthus tuberculatus biotype MCR 16 assessed as visual injury at 92 g/ha applied as spray after 7 days under green house conditions relative to untreated control
Amaranthus tuberculatus [8] = assay: Herbicidal activity against Amaranthus tuberculatus biotype MCR 15 assessed as visual injury at 92 g/ha applied as spray after 7 days under green house conditions relative to untreated control
Amaranthus tuberculatus [9] = assay: Herbicidal activity against Amaranthus tuberculatus biotype MCR 15 assessed as visual injury at 92 g/ha applied as spray after 14 days under green house conditions relative to untreated control
Amaranthus tuberculatus [10] = assay: Herbicidal activity against Amaranthus tuberculatus biotype MCR 15 assessed as visual injury at 92 g/ha applied as spray after 21 days under green house conditions relative to untreated control
Amaranthus tuberculatus [11] = assay: Herbicidal activity against Amaranthus tuberculatus biotype ACR assessed as visual injury at 92 g/ha applied as spray after 7 days under green house conditions relative to untreated control
Amaranthus tuberculatus [12] = assay: Herbicidal activity against Amaranthus tuberculatus biotype MCR 12 assessed as visual injury at 92 g/ha applied as spray after 7 days under green house conditions relative to untreated control
Amaranthus tuberculatus [13] = assay: Herbicidal activity against Amaranthus tuberculatus biotype MCR 12 assessed as visual injury at 92 g/ha applied as spray after 21 days under green house conditions relative to untreated control
Amaranthus tuberculatus [14] = assay: Herbicidal activity against Amaranthus tuberculatus biotype WCS assessed as visual injury at 92 g/ha applied as spray after 7 days under green house conditions relative to untreated control
Amaranthus tuberculatus [15] = assay: Herbicidal activity against Amaranthus tuberculatus biotype WCS assessed as visual injury at 92 g/ha applied as spray after 14 days under green house conditions relative to untreated control
Amaranthus tuberculatus [16] = assay: Herbicidal activity against Amaranthus tuberculatus biotype MCR 15 assessed as visual injury at 18 g/ha applied as spray after 21 days under green house conditions relative to untreated control
Amaranthus tuberculatus [17] = assay: Herbicidal activity against Amaranthus tuberculatus biotype MCR 12 assessed as visual injury at 18 g/ha applied as spray after 21 days under green house conditions relative to untreated control
Amaranthus tuberculatus [18] = assay: Herbicidal activity against Amaranthus tuberculatus biotype WCS assessed as visual injury at 18 g/ha applied as spray after 7 days under green house conditions relative to untreated control
Amaranthus tuberculatus [19] = assay: Herbicidal activity against Amaranthus tuberculatus biotype WCS assessed as visual injury at 18 g/ha applied as spray after 14 days under green house conditions relative to untreated control
Amaranthus tuberculatus [20] = assay: Herbicidal activity against Amaranthus tuberculatus biotype MCR 15 assessed as visual injury at 18 g/ha applied as spray after 7 days under green house conditions relative to untreated control
Amaranthus tuberculatus [21] = assay: Herbicidal activity against Amaranthus tuberculatus biotype ACR assessed as visual injury at 18 g/ha applied as spray after 14 days under green house conditions relative to untreated control
Amaranthus tuberculatus [22] = assay: Herbicidal activity against Amaranthus tuberculatus biotype MCR 12 assessed as visual injury at 18 g/ha applied as spray after 7 days under green house conditions relative to untreated control
Amaranthus tuberculatus [23] = assay: Herbicidal activity against Amaranthus tuberculatus biotype MCR 16 assessed as visual injury at 18 g/ha applied as spray after 7 days under green house conditions relative to untreated control
Amaranthus tuberculatus [24] = assay: Herbicidal activity against Amaranthus tuberculatus biotype ACR assessed as visual injury at 18 g/ha applied as spray after 7 days under green house conditions relative to untreated control
Amaranthus tuberculatus [25] = assay: Herbicidal activity against Amaranthus tuberculatus biotype MCR 15 assessed as visual injury at 18 g/ha applied as spray after 14 days under green house conditions relative to untreated control
Amaranthus tuberculatus [26] = assay: Herbicidal activity against Amaranthus tuberculatus biotype MCR 12 assessed as visual injury at 18 g/ha applied as spray after 14 days under green house conditions relative to untreated control
Amaranthus tuberculatus [27] = assay: Herbicidal activity against Amaranthus tuberculatus biotype WCS assessed as visual injury at 18 g/ha applied as spray after 21 days under green house conditions relative to untreated control
Amaranthus tuberculatus [28] = assay: Herbicidal activity against Amaranthus tuberculatus biotype ACR assessed as visual injury at 18 g/ha applied as spray after 21 days under green house conditions relative to untreated control
Amaranthus tuberculatus [29] = assay: Herbicidal activity against Amaranthus tuberculatus biotype MCR 16 assessed as visual injury at 18 g/ha applied as spray after 21 days under green house conditions relative to untreated control
Amaranthus tuberculatus [30] = assay: Herbicidal activity against Amaranthus tuberculatus biotype MCR 16 assessed as visual injury at 18 g/ha applied as spray after 14 days under green house conditions relative to untreated control

CS(=O)(=O)c1ccc(C(=O)C2C(=O)CCCC2=O)c(Cl)c1COCC(F)(F)F [TEMBOTRIONE]
Activity (Amaranthus tuberculatus [1]): 91% | Activity (Amaranthus tuberculatus [2]): 31% | Activity (Amaranthus tuberculatus [3]): 30% | Activity (Amaranthus tuberculatus [4]): 46% | Activity (Amaranthus tuberculatus [5]): 100% | Activity (Amaranthus tuberculatus [6]): 94% | Activity (Amaranthus tuberculatus [7]): 43% | Activity (Amaranthus tuberculatus [8]): 48% | Activity (Amaranthus tuberculatus [9]): 34% | Activity (Amaranthus tuberculatus [10]): 35% | Activity (Amaranthus tuberculatus [11]): 56% | Activity (Amaranthus tuberculatus [12]): 40% | Activity (Amaranthus tuberculatus [13]): 17% | Activity (Amaranthus tuberculatus [14]): 84% | Activity (Amaranthus tuberculatus [15]): 96%

Cc1c(C(=O)c2cnn(C)c2O)ccc(S(C)(=O)=O)c1C1=NOCC1 [TOPRAMEZONE]
Activity (Amaranthus tuberculatus [16]): 42% | Activity (Amaranthus tuberculatus [17]): 36% | Activity (Amaranthus tuberculatus [18]): 84% | Activity (Amaranthus tuberculatus [19]): 96% | Activity (Amaranthus tuberculatus [20]): 52% | Activity (Amaranthus tuberculatus [21]): 93% | Activity (Amaranthus tuberculatus [22]): 41% | Activity (Amaranthus tuberculatus [23]): 54% | Activity (Amaranthus tuberculatus [24]): 69% | Activity (Amaranthus tuberculatus [25]): 59% | Activity (Amaranthus tuberculatus [26]): 42% | Activity (Amaranthus tuberculatus [27]): 100% | Activity (Amaranthus tuberculatus [28]): 96% | Activity (Amaranthus tuberculatus [29]): 58% | Activity (Amaranthus tuberculatus [30]): 64%
